Test results as given in patent US7476666B2, “HIV integrase inhibitors” (Merck & Co., Inc., priority 2004, dated 2009).
pIC50: −log10 of the molar value.

Assays:
[1] = tested on: acute HIV infection with HeLa P4-2 cells; assay: Single cycle infectivity assay with HeLa P4-2 cells (vertical assay); assay type: cell-based; details: Human immunodeficiency virus 1, HeLaP4-2
Procedure: An assay for measuring the inhibition of acute HIV infection with HeLa P4-2 cells in a single cycle infectivity assay (alternatively referred to herein as the “vertical assay”) was conducted in accordance with Joyce, J. G. et al., J. Biol. Chem. 2002, 277: 45811, Hazuda, D. J. et al., Science, 2000, 287, 646, and Kimpton, J. et al, J. Virol. 1992, 66: 2232.

[2] = tested on: acute HIV infection of T-lymphoid cells; assay: Inhibition of acute HIV infection of T-lymphoid cells (spread assay); assay type: cell-based; details: Human immunodeficiency virus 1
Procedure: An assay for the inhibition of acute HIV infection of T-lymphoid cells (alternatively referred to herein as the “spread assay”) was conducted in accordance with Vacca, J. P. et al., Proc. Natl. Acad. Sci. USA 1994, 91: 4096.

[3] = target: T1, recombinant integrase (HIV integrase) (Human immunodeficiency virus type 1 group M subtype B, UniProt P04585); assay: HIV integrase assay: strand transfer catalyzed by recombinant integrase; assay type: biochemical; details: assay per WO 02/30930, read-out: IC50, inhibition of strand transfer activity of integrase
T1 construct: Strand Transfer Catalyzed by Recombinant Integrase
Procedure: Assays for the strand transfer activity of integrase were conducted in accordance with WO 02/30930 for recombinant integrase.
Further description on conducting the assay using preassembled complexes is found in Wolfe, A. L. et al., J. Virol. 1996, 70: 1424-1432, Hazuda et al., J. Virol. 1997, 71: 7005-7011; Hazuda et al., Drug Design and Discovery 1997, 15: 17-24; and Hazuda et al., Science 2000, 287: 646-650.

Compound | pIC50 [1] | IC95 [2] [µM] | pIC50 [3]
O=C(NC1CCNCC1)c1nn2c(c1O)C(=O)N(Cc1ccc(F)cc1)CC2 [Example 25, 5-(4-Fluorobenzyl)-3-hydroxy-4-oxo-N-(4-piperidinyl)-4,5,6,7-tetrahydropyrazolo[1,5-a]pyrazine-2-carboxamide] | > 4.40 | > 10 | –
CNC(=O)c1nn2c(c1O)C(=O)N(Cc1ccc(F)cc1)C(C)C2 (centres unmarked) [Example 6, 5-(4-Fluorobenzyl)-3-hydroxy-N-methyl-6-methyl-4-oxo-4,5,6,7-tetrahydropyrazolo[1,5-a]pyrazine-2-carboxamide] | > 4.40 | > 10 | –
CN1CCn2nc(C(=O)N3CCCC3c3ccccc3)c(O)c2C1=O (centres unmarked) [Example 16, 3-Hydroxy-5-methyl-4-oxo-2-[(2-phenylpyrrolidin-1-yl)carbonyl]-4,5,6,7-tetrahydropyrazolo[1,5-a]pyrazine] | – | > 10 | < 5.00
CN(C)CCN(Cc1ccccc1)C(=O)c1nn2c(c1O)C(=O)N(C)CC2 [Example 19, 2-{Benzyl[2-(dimethylamino)ethyl]aminocarbonyl}-3-hydroxy-5-methyl-4-oxo-4,5,6,7-tetrahydropyrazolo[1,5-a]pyrazine] | < 4.00 | > 10 | < 5.00
CN1CCn2nc(C(=O)N3CCc4ccccc4C3)c(O)c2C1=O [Example 14, 3-Hydroxy-5-methyl-4-oxo-2-[(1,2,3,4-tetrahydro-isoquinolin-2-yl)carbonyl]-4,5,6,7-tetrahydropyrazolo[1,5-a]pyrazine] | – | > 10 | < 5.00
CN1CCn2nc(C(=O)N(CCO)Cc3ccccc3)c(O)c2C1=O [Example 18, 2-[Benzyl(2-hydroxyethyl)aminocarbonyl]-3-hydroxy-5-methyl-4-oxo-4,5,6,7-tetrahydropyrazolo[1,5-a]pyrazine] | < 4.00 | > 10 | –
CN(Cc1ccc2nccnc2c1)C(=O)c1nn2c(c1O)C(=O)N(C)CC2 [Example 17, 3-Hydroxy-5-methyl-4-oxo-2-{[quinoxalin-6-ylmethyl(methyl)amino]carbonyl}-4,5,6,7-tetrahydropyrazolo[1,5-a]pyrazine] | > 4.40 | > 10 | –
O=C(c1nn2c(c1O)C(=O)N(Cc1ccc(F)cc1)CC2)N1CCOCC1 [Example 28, 5-(4-Fluorobenzyl)-3-hydroxy-2-(morpholin-4-ylcarbonyl)-4-oxo-4,5,6,7-tetrahydropyrazolo[1,5-a]pyrazine] | > 4.40 | > 10 | –
O=C(NCc1ccc(Cl)c(Cl)c1)c1nn2c(c1O)C(=O)N(CC(=O)N1CCOCC1)CC2 [Example 20, N-(3,4-Dichlorobenzyl)-3-hydroxy-5-[2-(4-morpholinyl)-2-oxoethyl]-4-oxo-4,5,6,7-tetrahydropyrazolo[1,5-a]pyrazine-2-carboxamide] | – | ≤ 10 | –
CNC(=O)c1cc(F)ccc1CNC(=O)c1nn2c(c1O)C(=O)N(C)CC2C(C)C (centres unmarked) [Example 49, N-{4-Fluoro-2-[(methylamino)carbonyl]benzyl}-3-hydroxy-7-isopropyl-5-methyl-4-oxo-4,5,6,7-tetrahydropyrazolo[1,5-a]pyrazine-2-carboxamide] | – | ≤ 10 | –
CN(C)C(=O)C1(C)CN(C)C(=O)c2c(O)c(C(=O)NCc3ccc(F)cc3)nn21 (centres unmarked) [Example 8, 5,7-Dimethyl-N-(4-fluorobenzyl)-3-hydroxy-7-(dimethylaminocarbonyl)-4-oxo-4,5,6,7-tetrahydropyrazolo[1,5-a]pyrazine-2-carboxamide] | – | ≤ 10 | –
COC(=O)c1nn2c(c1O)C(=O)N(Cc1ccc(F)cc1)CC2 [Example 1, Methyl 5-(4-fluorobenzyl)-3-hydroxy-4-oxo-4,5,6,7-tetrahydropyrazolo[1,5-a]pyrazine-2-carboxylate] | < 4.00 | > 10 | –
O=C(NCCN1CCOCC1)c1nn2c(c1O)C(=O)N(Cc1ccc(F)cc1)CC2 [Example 23, 5-(4-Fluorobenzyl)-3-hydroxy-N-[2-(4-morpholinyl)ethyl]-4-oxo-4,5,6,7-tetrahydropyrazolo[1,5-a]pyrazine-2-carboxamide] | – | ≤ 10 | –
CN(Cc1ccc(F)cc1)C(=O)c1nn2c(c1O)C(=O)N(C)CC2 [Example 13, 2-[4-fluorobenzyl(methyl)aminocarbonyl]-3-hydroxy-5-methyl-4-oxo-4,5,6,7-tetrahydropyrazolo[1,5-a]pyrazine-2-carboxamide] | – | ≤ 10 | –
CCCCNC(=O)c1nn2c(c1O)C(=O)N(Cc1ccc(F)cc1)CC2 [Example 24, N-Butyl-5-(4-fluorobenzyl)-3-hydroxy-4-oxo-4,5,6,7-tetrahydropyrazolo[1,5-a]pyrazine-2-carboxamide] | – | ≤ 10 | –
CC(C)C1CN(C)C(=O)c2c(O)c(C(=O)NCc3ccc(F)cc3)nn21 (centres unmarked) [Example 48, N-(4-Fluorobenzyl)-3-hydroxy-7-isopropyl-5-methyl-4-oxo-4,5,6,7-tetrahydropyrazolo[1,5-a]pyrazine-2-carboxamide] | – | ≤ 10 | –
